Tested on: Rattus norvegicus
Assay: Effective dose required to inhibit sorbitol accumulation in sciatic nerves of streptozotocinized rats administered perorally
Format: functional, Sciatic nerve

SMILES	ED50 [mg/kg]
O=C1NC(=O)[C@@]2(CCOc3ccc(F)cc32)N1 (stereo in doubt; form 1) [SORBINIL]	0.25
O=C1NC(=O)[C@@]2(CCOc3ccc(F)cc32)N1 (stereo in doubt; form 2) [SORBINIL]	25

Reference: ChEMBL document CHEMBL1123138 (J Med Chem, 1985)
